According to patent US9060516B2, “Method for controlling aquatic weeds” (BASF SE, priority 2005, dated 2015):

Tests used:
[1] = test system: Mixed population of submersed weed species: Hydrilla verticillata and Egeria densa; assay: Greenhouse test, static exposure of a mixed population of submersed weed species to quinmerac and quinclorac; assay type: in vivo; details: for Shoot Fresh / Shoot Length: static exposure, 12 weeks after treatment; for Shoot Fresh: control 6.8 g, LSD at 0.05 = 3.1; for Shoot Length: control 37.3 cm, LSD at 0.05 = 17.4
Experimental: To begin the experiment, containers were filled and maintained with a volume of 4000 ml of distilled water that was maintained at room temperature (24° C.). To each container, established weed plants (potted in sand mixture) were transferred into the water column. Plants were selected for uniformity and length of shoot growth (approx 15 cm). Plants were allowed to equilibrate in the containers for 24 hrs prior to herbicide treatment. Experimental treatments included an untreated control, quinmerac at 100, 250, and 500 ppb, as well as, quinclorac at 250 ppb of actual acid equivalent of herbicide. Treatments were applied to water columns by the use of a pipette. Amount of herbicide applied was based on the total volume of the containers (4000 ml). After initial herbicide treatment, the water columns were gently stirred to ensure uniform distribution. Treatments were arranged as a completely random design with 3 replications. Each container was considered the experimental unit. Greenhouse conditions were maintained at 24/18° C. (day/night) cycle for the duration of the experiment. Natural day length was supplemented with halogen lighting to provide a 14 hr photoperiod. Water level in the containers was periodically checked and maintained at the 4000 ml level for the duration of the study. After 12 weeks of exposure, weed shoot length and fresh weights were measured to ascertain herbicide effects.

[2] = test system: Hydrilla verticillata; assay: Greenhouse test, static exposure of Hydrilla verticillata to quinclorac in water columns; assay type: in vivo; details: for Hydrilla Shoot Length: static exposure, 11 weeks after treatment, control 30.4 cm, LSD at 0.05 = 11.5
Experimental: To begin the experiment, PVC cylinders were filled and maintained with a volume of 4000 ml of dichlorinated water that was maintained at room temperature (24° C.). To each cylinder, an established hydrilla plant (potted in sand mixture) was transferred into the water column. Hydrilla plants were selected for uniformity and length of shoot growth (approx 15 cm). Plants were allowed to equilibrate in the columns for 24 hrs prior to herbicide treatment. Experimental treatments included an untreated control, and quinclorac at 50, 250 and 500 ppb of actual acid equivalent of herbicide. Treatments were applied to water columns by the use of a pipette. Amount of herbicide applied was based on the total volume of the cylinders (4000 ml). After initial herbicide treatment, the water columns were gently stirred to ensure uniform distribution. Treatments were arranged as a completely random design with 3 replications. Each cylinder was considered the experimental unit. Greenhouse conditions were maintained at 24/18° C. (day/night) cycle for the duration of the experiment. Natural day length was supplemented with halogen lighting to provide a 14 hr photoperiod. Water level in the cylinders was periodically checked and maintained at the 4000 ml level for the duration of the study. After 11 weeks of exposure, hydrilla shoot lengths were measured to ascertain herbicide effects.

| Compound | Visual symptomology ([1]; 12 weeks of exposure, intensity tended to be rate responsive) | Shoot Fresh ([1]; 100 ppb acid equivalent) [grams] | Shoot Length ([1]; 100 ppb acid equivalent) [cm] | Shoot Fresh ([1]; 250 ppb acid equivalent) [grams] | Shoot Length ([1]; 250 ppb acid equivalent) [cm] | Reduction in both shoot length and fresh weight vs. the control ([1]; 250 ppb, 12 weeks of exposure) | Shoot Fresh ([1]; 500 ppb acid equivalent) [grams] | Shoot Length ([1]; 500 ppb acid equivalent) [cm] | Reduction in both shoot length and fresh weight vs. the control ([1]; 500 ppb, 12 weeks of exposure) | Hydrilla Shoot Length ([2]; 50 ppb acid equivalent) [cm] | Hydrilla Shoot Length ([2]; 250 ppb acid equivalent) [cm] | Hydrilla Shoot Length ([2]; 500 ppb acid equivalent) [cm] | Effect on the growth of hydrilla ([2]; after the 11 week exposure period, 50-500 ppb) | Visual symptomology ([2]; after the 11 week exposure period, intensity tended to be rate responsive) |
| --- | --- | --- | --- | --- | --- | --- | --- | --- | --- | --- | --- | --- | --- | --- |
| Cc1cnc2c(C(=O)O)c(Cl)ccc2c1 [Quinmerac, 7-chloro-3-methylquinoline-8-carboxylic acid] | reduction in plant vigour and auxinic-like twisting of leaf tissue | 5.1 | 15.0 | 0.5 | 8.9 | Significant reduction | 0.1 | 6.5 | Significant reduction |  |  |  |  |  |
| O=C(O)c1c(Cl)ccc2cc(Cl)cnc12 [Quinclorac, 3,7-dichloroquinoline-8-carboxylic acid] |  |  |  | 1.5 | 15.7 | Significant reduction |  |  |  | 15.0 | 8.9 | 6.5 | significant effect on the growth of hydrilla | reduction in plant vigour and auxinic-like twisting of leaf tissue |
